This note sets out measurements from patent US10138240B2, “Crystal of 5-hydroxy-4-(trifluoromethyl)pyrazolopyridine derivative” (Daiichi Sankyo Company, Limited, priority 2015, dated 2018).

Broadly, the EC50 is the concentration at which the effect is half-maximal.

The target in one assay is LCAT (Homo sapiens (Human), UniProt P04180). Description: LCAT activity measurement (in vitro), HDL3 fraction from human plasma as enzyme source and acceptor. The class given is biochemical. The following applies: HDL3 1 mg/mL from plasma of a healthy person, [14C]cholesterol, 37° C., approximately 16 hours; read-out: EC50 of LCAT activation. As to the method:
A fraction composed of HDL3 (1.125<specific gravity <1.210 g/mL) was obtained from the plasma of a healthy person by density gradient centrifugation. The obtained fraction was dialyzed against phosphate-buffered saline (pH 7.4) and used as an enzyme source and an acceptor for LCAT. Each test drug was prepared by dissolution in dimethyl sulfoxide. [^14C]Cholesterol containing DTNB (Ellman's reagent, final concentration: 0.5 mM), mercaptoethanol (final concentration: 12.5 mM), and 0.6% bovine serum albumin was added to phosphate-buffered saline (pH 7.4) containing 1 mg/mL HDL3, and the test drug was further added thereto at varying concentrations to adjust the whole amount to 80 μL. This mixture was incubated at 37° C. for approximately 16 hours. Then, a mixed solution of hexane and isopropanol (mixing ratio=3:2) was added thereto to stop the reaction. After stirring, the hexane layer was collected, and this layer was evaporated to dryness. […] The radioactivity of a portion corresponding to cholesterol oleate was measured using an imaging analyzer BAS-2500 (manufactured by Fujifilm Corp.). […] The EC50 value of LCAT activation was calculated according to the expression given below relative to the LCAT activity in the sample non-supplemented with the test drug. […]

A further assay has as its system cynomolgus monkey. Kind of assay: Drug efficacy test in cynomolgus monkeys (plasma HDL cholesterol). The class given is in vivo. The following applies: oral, single dose of 10 mg/kg, from AUC before administration and 24 hours after administration. As to the method:
Each test drug was dissolved in a propylene glycol (Sigma-Aldrich Corp.)-Tween 80 (Sigma-Aldrich Corp.) mixed solution [4/1 (v/v)] or a 0.5% (w/v) methylcellulose aqueous solution, and the solution was orally administered to a cynomolgus monkey for 1 or 7 days. At 1 or 7 day of administration period, blood was collected before administration and after administration, and plasma was obtained. The content of cholesterol in the plasma was measured using a commercially available assay kit (Cholesterol-E Wako, Wako Pure Chemical Industries, Ltd.). The lipoprotein profile was analyzed by HPLC (column: LipopropakXL, manufactured by Tosoh Corp.). The contents of HDL cholesterol and non-HDL cholesterol were calculated according to the following calculation expression: Content of HDL cholesterol=Content of cholesterol in the plasma×(Peak area of HDL cholesterol/Total sum of peaks) Content of non-HDL cholesterol=Content of cholesterol in the plasma×(Peak area of non-HDL cholesterol/Total sum of peaks)
The rate (%) of increase in HDL level after the administration of a single dose of 10 mg/kg compared with before administration was determined from the AUC before administration and 24 hours after administration.

Chain of LCAT (P04180 25-440): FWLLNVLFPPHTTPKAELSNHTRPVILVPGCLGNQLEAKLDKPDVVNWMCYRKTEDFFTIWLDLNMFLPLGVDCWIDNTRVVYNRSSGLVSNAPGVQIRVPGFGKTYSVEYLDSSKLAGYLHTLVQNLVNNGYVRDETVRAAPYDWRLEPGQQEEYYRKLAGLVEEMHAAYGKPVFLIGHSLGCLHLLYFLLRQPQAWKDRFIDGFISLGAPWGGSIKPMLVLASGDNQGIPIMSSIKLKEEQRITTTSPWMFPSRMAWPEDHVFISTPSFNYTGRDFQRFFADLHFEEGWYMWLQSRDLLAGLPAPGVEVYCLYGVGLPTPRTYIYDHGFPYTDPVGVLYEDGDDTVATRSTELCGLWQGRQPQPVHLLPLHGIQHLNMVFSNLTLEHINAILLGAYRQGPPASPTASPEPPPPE

Consider `O=C1Nc2[nH]nc(C3CCN(c4cnc(C(F)(F)F)nc4)CC3)c2[C@@H](C(F)(F)F)[C@H]1O` [Example 6(4), (+)-cis-5-Hydroxy-4-(trifluoromethyl)-3-{1-[2-(trifluoromethyl)pyrimidin-5-yl]piperidin-4-yl}-1,4,5,7-tetrahydro-6H-pyrazolo[3,4-b]pyridin-6-one], for which the EC50 at LCAT was found to be 18 nM. Also, the “Rate of increase in HDL level after administration of single dose” value in the assay on cynomolgus monkey turned out to be 483%.
For `O=C1Nc2[nH]nc(C3CCN(c4cnc(C(F)(F)F)cn4)CC3)c2C(O)(C(F)(F)F)C1O` (single isomer, unassigned; (+)) [Example 1(4), (+)-4,5-Dihydroxy-4-(trifluoromethyl)-3-{1-[5-(trifluoromethyl)pyrazin-2-yl]piperidin-4-yl}-1,4,5,7-tetrahydro-6H-pyrazolo[3,4-b]pyridin-6-one] the same measures were 4 nM and 590%.
